From patent publication US7550457B2, “Pharmaceutically effective compounds” (CytRx Corporation, priority 2002, dated 2009)

Assays:
[1] = test system: thoracic aorta of SH rats; assay: Vaso-relaxing effect on the thoracic aorta of SH rats (in vitro testing after one month treatment); assay type: in vivo, rat; conditions: aorta rings of SH rats treated for one month (dose per compound as in table), contracted with 10^-6 M methoxamine, unit assumed; for vessel relaxing effect, Ach dose 10^-5 M: acetylcholine 10^-5 M; for vessel relaxing effect, Ach dose 10^-6 M: acetylcholine 10^-6 M; for vessel relaxing effect, Ach dose 10^-4 M: acetylcholine 10^-4 M
Procedure: In the following, we give the results of the test of blood vessel relaxing effect, performed in vitro on rat vessels, and also the morphological results of the thoracic aorta.
(§1) Three-month-old, genetically hypertonic (SH) Wistar Okamoto rats were treated for one month with various test compounds. Thereafter the functional and morphological tests were performed.
The Vaso-relaxing Effect of the Compounds of the Invention on the Thoracic Aorta of SH Rats (In Vitro Testing)
The test was performed by the method known from the literature [Japan J. Pharmacol., 59, 339-347 (1992)]. The SH rats were anesthetized with Nembutal (40 mg/kg, i. p.), then the thoracic aorta was removed and placed in oxygenized (95% O2+5% CO2) Krebs-Henseleit solution. The composition of the solution (mM): NaCl 118, KCI 4, 7, CaCl2 2,52, MgSO4 1,64, NaHCO3 24,88, KH2PO4 1,18, glucose 5,5. The 3-mm-long aorta rings were suspended in a 20 ml organ bath of 37° C. The resting tension was 1 g, which was maintained throughout the equilibration. During the 1 hour equilibration, the medium was changed in every 20 minutes. The vessels were contracted with 10^−6 M methoxamine (approximately 80% of maximal contraction). After reaching the maximal contraction, we tested the vasodilation resulting as the effect of the acetylcholine (Ach) (10^−6−10^−4 M), which informed us about the condition of the endothelium of the vessel wall. The contraction force was measured by an isometric strain gauge (SG-01D, Experimentia Ltd), and was registered on an OH-850 polygraph (Radelkis). At this time again, 5,6-dihydro-5-(1-piperidinyl)-methyl-3-(3-pyridyl)-4H-1,2,4-oxadiazine as described in WO 98/06400 was used as a reference compound.

[2] = test system: human umbilical vein endothelial cells (HUVEC); assay: Wounding migration assay in endothelial cell culture; assay type: cell-based; conditions: wounded HUVEC monolayer, 24 hours after wounding, test agent 10^-6 M
Procedure: Wounding Migration Assay in Endothelial Cell Culture
The effect of the compounds of the invention on the wounded monolayers of human umbilical vein endothelial cells (HUVEC) were studied in a cell culture system (in vitro). After reaching confluence, the HUVEC cells were wounded according to the method of Yamamura et al. (J. Surgical Res. 63, 349-354, 1996). The number of migrated cells were registered using computerized image analysis 24 hours after wounding in the absence and presence of the active agents under testing in a concentration of 10^−6 M. The active ingredient described in publication no. WO 98/06400, namely 5,6-dihydro-5-(1-piperidinyl)-methyl-3-(3-pyridyl)-4H-1,2,4-oxadiazine was used as reference compound.

[3] = test system: thoracic aorta of SH rats; assay: Morphological testing of the thoracic aortas with electron microscopy; assay type: in vivo, rat; design: key: 1: no regeneration was observable; 2: weak; 3: average; 4: good; 5: strong regeneration; conditions: SH rats treated p. o. for one month (dose per compound as in table), scale of 1 to 5, electron microscopy of thoracic aorta endothelium
Procedure: as §1
Morphological Testing of the Thoracic Aortas with Electron Microscopy
The test was performed according to the procedure known from the literature (Br. J. of Pharmacol., 1995; 115, 415-420). 1 mm^2 pieces of the aorta wall was cut out of the thoracic aorta of the rats, and were then fixed with 2.5% glutaraldehyde at room temperature for 2 hours. This was followed by a post-fixation with 1% osmium tetroxide for 1 hour. Afterwards, the tissue pieces were dehydrated with ethanol, and embedded in Durcupan ACM. The samples were evaluated qualitatively based on the images recorded on a Hitachi 7100 electron microscope.
On the scale, 1 was used to refer to cases where no regeneration was observable, 2 refers to weak, 3 to average, 4 to good, and 5 to strong regeneration.

| Structure (SMILES) | vessel relaxing effect, Ach dose 10^-5 M [1] [%] | vessel relaxing effect, Ach dose 10^-6 M [1] [%] | number of migrated cells, cell/mm^2 24 hours [2] [cell/mm^2] | vessel relaxing effect, Ach dose 10^-4 M [1] [%] | Degree of regeneration [3] |
| --- | --- | --- | --- | --- | --- |
| O=C1CCCCN1CC1CON=C(c2cccnc2)N1 (single isomer, unassigned) [Compound no. 8, (R) or (S)-5,6-dihydro-5-[(2-oxo-1-piperidinyl)methyl]-3-(3-pyridyl)-4H-1,2,4-oxadiazine] | 88 |  |  |  |  |
| [O-][n+]1cccc(C2=NOCC(CN3CCCCC3)N2)c1 (single isomer, unassigned; (+)) [Compound no. 9, (+)-5,6-dihydro-5-[(1-piperidinyl)methyl]-3-(1-oxido-3-pyridyl)-4H-1,2,4-oxadiazine] |  | 87 |  |  |  |
| O.O.O=[N+]([O-])c1cccc(C(Cl)=NOCCC[N+]2([O-])CCCCC2)c1 [Compound no. 4, N-[3-(1-oxido-1-piperidinyl)propoxy]-3-nitro-benzimidoyl-chloride dihydrate] | 84.9 | 82.5 | 45 | 88.1 | 5 |
| OC1CCN(CC2CON=C(c3cccnc3)N2)CC1 (centres unmarked) [Compound no. 11, 5,6-dihydro-5-[(4-hydroxy-1-piperidinyl)methyl]-3-(3-pyridyl)-4H-1,2,4-oxadiazine] | 85.1 | 79.7 | 51 | 86 | 4 |
| Cl.ClC(=NOCC(Cl)CN1CCCCC1)c1ccccc1 (centres unmarked) [Compound no. 12, N-[2-chloro-3-(1-piperidinyl)propoxy]-3-benzimidoyl-chloride hydrochloride] | 83.5 | 82.3 | 60 | 80.4 | 3 |
| O=C(NOCC(O)CN1CCCCC1)c1ccc[n+]([O-])c1 (centres unmarked) [Compound no. 13, N-[2-hydroxy-3-(1-piperidinyl)propoxy]-pyridin-1-oxide-3-carboxamide] | 90.3 | 88.4 | 54 | 95.2 | 4 |
| c1cncc(C2=NOCC(CN3CCCCC3)N2)c1 (centres unmarked) [Reference, 5,6-dihydro-5-(1-piperidinyl)-methyl-3-(3-pyridyl)-4H-1,2,4-oxadiazine, reference compound] | 80.2 | 77.4 | 30 | 81.7 |  |
